# Experimental data: ChEMBL document CHEMBL1138689, “Synthesis of 5a-carba-hexopyranoses and hexopyranosylamines, as well as 5a,5a'-dicarbadisaccharides, from 3,8-dioxatricyclo[4.2.1.0(2,4)]nonan-9-ol: glycosidase inhibitory activity of N-substituted 5a-carba-beta-gluco- and beta-galactopyranosylamines, and derivatives thereof” (Bioorg Med Chem Lett, 2004); call rule not given here
# What was measured:
# [1] = Inhibition of Alpha-galactosidase of green coffee beans; […]
# [2] = biological target: T1, Tissue alpha-L-fucosidase (Bos taurus, UniProt Q2KIM0); assay: Inhibition of Alpha-fucosidase of bovine kidney; NI=no inhibition
# T1 sequence (Q2KIM0 whole entry): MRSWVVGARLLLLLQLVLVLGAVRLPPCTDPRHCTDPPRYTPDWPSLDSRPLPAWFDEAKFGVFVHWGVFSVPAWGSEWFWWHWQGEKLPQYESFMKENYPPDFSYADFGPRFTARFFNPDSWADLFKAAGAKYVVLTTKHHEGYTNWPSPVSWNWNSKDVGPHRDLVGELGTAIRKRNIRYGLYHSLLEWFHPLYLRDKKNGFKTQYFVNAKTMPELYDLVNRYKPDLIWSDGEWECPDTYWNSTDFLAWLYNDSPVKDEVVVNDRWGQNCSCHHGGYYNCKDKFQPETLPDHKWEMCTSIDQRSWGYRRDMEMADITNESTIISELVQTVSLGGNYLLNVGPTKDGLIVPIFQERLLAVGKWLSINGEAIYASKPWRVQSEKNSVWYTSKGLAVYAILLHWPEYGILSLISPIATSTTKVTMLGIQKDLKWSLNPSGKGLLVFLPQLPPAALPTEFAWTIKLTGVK
# Beta-galactosidase = biological target: T2, Beta-galactosidase (Bos taurus, UniProt Q58D55); assay: Inhibition of Beta-galactosidase of bovine liver; […]
# T2 sequence (Q58D55 whole entry): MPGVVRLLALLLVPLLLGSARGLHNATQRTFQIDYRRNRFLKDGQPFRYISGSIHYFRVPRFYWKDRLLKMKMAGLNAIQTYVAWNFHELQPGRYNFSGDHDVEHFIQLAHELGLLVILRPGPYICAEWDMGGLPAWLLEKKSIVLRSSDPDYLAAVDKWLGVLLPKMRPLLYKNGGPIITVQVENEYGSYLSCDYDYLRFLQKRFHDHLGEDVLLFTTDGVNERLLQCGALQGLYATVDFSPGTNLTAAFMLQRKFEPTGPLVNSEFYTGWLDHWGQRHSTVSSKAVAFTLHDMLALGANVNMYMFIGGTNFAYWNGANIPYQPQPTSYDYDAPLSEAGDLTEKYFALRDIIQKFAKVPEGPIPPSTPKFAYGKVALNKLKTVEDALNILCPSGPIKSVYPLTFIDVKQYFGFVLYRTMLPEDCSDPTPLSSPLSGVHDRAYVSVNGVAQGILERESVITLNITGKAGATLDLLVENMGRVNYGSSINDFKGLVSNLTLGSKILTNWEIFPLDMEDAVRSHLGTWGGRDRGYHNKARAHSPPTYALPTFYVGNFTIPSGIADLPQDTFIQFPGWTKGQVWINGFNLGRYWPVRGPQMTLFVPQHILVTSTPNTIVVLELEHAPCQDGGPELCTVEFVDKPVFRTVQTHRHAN
# [3] = Inhibition of Alpha-galactosidase of green coffee beans; NI=no inhibition
# [4] = Inhibition of Alpha-Glucosidase of Bakers yeast; NI=no inhibition; design: species or system Saccharomyces cerevisiae
# [5] = Inhibition of Alpha-galactosidase of green coffee beans
# [6] = Compound was tested for the inhibition of alpha-Glucosidase of Bakers yeast; NI denotes no inhibition; design: species or system Saccharomyces cerevisiae
IC50 [1] [µM],IC50 [2],IC50 (Beta-galactosidase),IC50 [3],IC50 [4],IC50 [5] [µM],Compound,IC50 [6]
> 1000,–,–,–,–,–,C=C1CC(NCCCCCCCC)C(O)C(O)C1O (centres undefined),–
> 1000,–,–,–,–,–,CC(=O)NC1CC(CO)C(O)C(O)C1O (centres undefined),–
–,Not Active,No inhibition,Not Active,Not Active,–,"CCCCCCCCN[C@@H]1C[C@@H]2CO[C@H](C2O)[C@H]1O (single isomer, unassigned)",–
–,–,–,–,–,2.8,N[C@H]1C[C@H](CO)[C@@H](O)[C@H](O)[C@H]1O,–
–,Not Active,No inhibition,Not Active,Not Active,–,"CCCCCCCCCCCCN[C@@H]1C[C@@H]2CO[C@H](C2O)[C@H]1O (single isomer, unassigned)",–
> 1000,–,–,–,–,–,CCCCCCCCNC1CC(CO)C(O)C(O)C1O (centres undefined),–
–,Not Active,No inhibition,Not Active,Not Active,–,"CCCCCCN[C@@H]1C[C@@H]2CO[C@H](C2O)[C@H]1O (single isomer, unassigned)",–
–,Not Active,No inhibition,Not Active,Not Active,–,"CCCCN[C@@H]1C[C@@H]2CO[C@H](C2O)[C@H]1O (single isomer, unassigned)",–
–,Not Active,No inhibition,Not Active,Not Active,–,"OC1[C@H]2CO[C@H]1[C@@H](O)[C@H](NCc1ccccc1)C2 (single isomer, unassigned)",–
–,Not Active,No inhibition,Not Active,Not Active,–,"CCCCCCCCCCN[C@@H]1C[C@@H]2CO[C@H](C2O)[C@H]1O (single isomer, unassigned)",–
–,–,–,–,–,1.2,CO[C@@H]1CC2COC(C1O)[C@H]2NC1CC(CO)C(O)C(O)C1O (some centres undefined),–

Compound,IC50 [1] [µM],IC50 [2],IC50 (Beta-galactosidase),IC50 [3],IC50 [4],IC50 [5] [µM],IC50 [6]
CCCCCCCCNC1CC(C)C(O)C(O)C1O (centres undefined),> 1000,–,–,–,–,–,–
"OC1[C@H]2CO[C@H]1[C@@H](O)[C@H](NCCc1ccccc1)C2 (single isomer, unassigned)",–,Not Active,No inhibition,Not Active,–,–,Not Active
